Test results from publication PMC6358721, “Engineering of B800 bacteriochlorophyll binding site specificity in the Rhodobacter sphaeroides LH2 antenna” (Biochimica et Biophysica Acta. Bioenergetics, 2019).

Molecular target: T1, LH2 (light-harvesting 2 complex), B800 site; B850 LH2 when B800-depleted (Cereibacter sphaeroides, UniProt Q3J144+Q3J145)
T1 construct: gene pucA; native complex purified from Rba. sphaeroides membranes (LDAO, then beta-DDM); B800 BChl a removed with LDS for reconstitution; B850 BChl a and carotenoid retained; ring of nine alpha-beta pairs; R30L/R30F genomic at the puc1BA locus, R30E/R30M from pRK415 vectors, in delta-puc1BA delta-puc2BA delta-pufBALMX
Experiment: reconstitution of B800-depleted LH2, absorption spectra
Assay type: binding
Details: 20 mM Tris pH 8, 0.5% beta-DDM, 12 uM pigment, room temperature

T1 sequence (Q3J144 whole entry): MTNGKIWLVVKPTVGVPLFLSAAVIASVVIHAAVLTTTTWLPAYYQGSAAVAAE
T1 sequence (Q3J145 2-51): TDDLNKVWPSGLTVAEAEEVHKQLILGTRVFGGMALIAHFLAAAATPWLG

C=Cc1c(C=O)c2[n]3c1C=C1N=C(C=c4c(C)c5c([n]4[Mg]3)=C(C3=NC(=C2)[C@@H](C)[C@@H]3CCC(=O)OC/C=C(\C)CCC[C@H](C)CCC[C@H](C)CCCC(C)C)[C@@H](C(=O)OC)C5=O)C(CC)=C1C [Chl f]
reconstitution of B800-depleted LH2, absorption spectra: we generated additional novel reconstitutions using Chl f
